From article PMC10108347, “Heterobifunctional Ligase Recruiters Enable pan-Degradation of Inhibitor of Apoptosis Proteins” (Journal of Medicinal Chemistry, 2023)
Like-named read-outs stand apart in the source and are kept apart here.

Tests used:
[1] = molecular target: T1, plasma protein (HSA column) (Homo sapiens, UniProt P02768); test: Plasma protein binding estimated by HPLC on a […] HSA column; assay type: in vitro ADME; conditions: CHIRALPAK HSA column (50 × 3 mm, 5 μm), estimated by an HPLC-based method, read-out: PPB (plasma protein binding) (converted)
T1 construct: purchased
Procedure: Plasma protein binding (% PPB) was estimated by correlating the logarithmic retention times of the analytes on a […] HSA 50 × 3 mm, 5 μm column with the literature-known % PPB values (converted into log K values) of the following drugs: warfarin, ketoprofen, budesonide, nizatidine, indomethacin, acetylsalicylic acid, carbamazepine, piroxicam, nicardipine, and cimetidine (for details, see Valko et al.).[67] The samples were dissolved in MeCN/DMSO 9:1 to achieve a final concentration of 0.5 mg/mL. Mobile phase A was 50 mM ammonium acetate adjusted to pH 7.4 with ammonia solution, while mobile phase B was iPrOH. The flow rate was set to 1.0 mL/min, the UV detector was set to 254 nm, and the column temperature was kept at 30 °C. After injecting 2 μL of the sample, a linear gradient from 100% A to 30% iPrOH in 5.4 min was applied. From 5.4 to 18 min, 30% iPrOH was kept, followed by switching back to 100% A in 1.0 min and a re-equilibration time of 6 min. With the aid of the calibration line (R^2 = 0.96), the log K values of new substances were calculated and converted to their % PPB values.

[2] = Log D7.4 measurement by chromatographic (fast-gradient HPLC) method; conditions: for chromatographic logD: pH 7.4
Procedure: The system was calibrated by plotting the retention times of six different drugs (atenolol, metoprolol, labetalol, diltiazem, triphenylene, and permethrin) versus their literature-known log D7.4 in a calibration line (R^2 = 0.99). Subsequently, the mean retention times of the analytes were taken to calculate their log D7.4 values with the aid of the calibration line. At least two independent measurements of each analyte were performed.

XIAP = XIAP (Homo sapiens, UniProt P98170); test: Immunoblotting (western blot) quantification of XIAP levels in MM.1S cells; conditions: for remaining activity at 0.1 µM: MM1.S, 16 h
Procedure: (§1) To evaluate the capability of our panel of hetero-PROTACs for E3 ligase degradation, VHL19, VHL30, CRBN, cIAP1, cIAP2, and XIAP levels were quantified by western blot analyses. […] SDS-PAGE was performed, and proteins were then transferred onto PVDF membranes. Blotted membranes were blocked with 5% milk in Tris-buffered saline/Tween20 (TBST). Primary antibodies were diluted in 5% BSA in TBST, and incubations were performed overnight at 4 °C. Secondary HRP-conjugated antibodies diluted in 5% milk were incubated for 1 h at room temperature. Detection of proteins on PVDF was carried out using the WesternBright ECL HRP substrate or the WesternBright Sirius HRP substrate (Advansta, San Jose, USA) and imaged with LAS 4000× (Fujifilm). Membranes were subjected to 10 min incubation with Restore Western Blot Stripping Buffer (Thermo Fisher Scientific, Waltham, USA), followed by TBST washes. After brief re-activation with methanol, the membranes were blocked, and further probing of proteins was carried out.
(§2) Quantification of blots was performed using ImageJ software (National Institutes of Health).

cIAP1 = cIAP1 (Homo sapiens, UniProt Q13490); test: Immunoblotting (western blot) quantification of cIAP1 levels in MM.1S cells; conditions: for remaining activity at 0.1 µM: MM1.S, 16 h
Procedure: as §1, §2

cIAP2 = cIAP2 (Homo sapiens, UniProt Q13489); test: Immunoblotting (western blot) quantification of cIAP2 levels in MM.1S cells; conditions: for remaining activity at 0.1 µM: MM1.S
VHL30 = VHL30 (Homo sapiens, UniProt P40337); test: Immunoblotting (western blot) quantification of VHL30 levels in MM.1S cells; conditions: MM1.S, 16 h, read-out: %remaining protein VHL30
Procedure: as §1, §2

CRBN = CRBN (Homo sapiens, UniProt Q96SW2); test: Immunoblotting (western blot) quantification of CRBN levels in MM.1S cells; conditions: for remaining activity at 0.1 µM: MM1.S, 16 h, read-out: %remaining protein CRBN
Procedure: as §1, §2

IKZF3 = test: Immunoblotting (western blot) quantification of IKZF3 levels in MM.1S cells; conditions: for %remaining protein IKZF3: 16 h treatment at 0.1 μM, normalized to loading control and DMSO; for IKZF3 degradation (in words): 16 h, 1 μM
Procedure: as §1, §2

[3] = system: IAPs (cIAP1, cIAP2, XIAP); test: Immunoblotting of IAPs in MM.1S cells, overall degradation profile, time course and washout; assay type: cell-based; conditions: 16 h, western blot, concentration (10 nM to 1 μM)
Procedure: Next, we examined the persistence of IAP degradation in MM.1S cells after a single exposure to 1 μM of 9 and subsequent removal of the compound. […] The reliance on CRL2^VHL was assessed with a neddylation inhibitor MLN4924, which blocks the activity of CRLs (Figure S13A).

[4] = read-out: %remaining protein XIAP
[5] = read-out: %remaining protein cIAP1
[6] = 16 h, read-out: %remaining protein cIAP2
[7] = read-out: %remaining protein XIAP, MM.1S cells, 16 h treatment at 0.1 μM, normalized to loading control and DMSO
[8] = read-out: %remaining protein cIAP1, MM.1S cells, 16 h treatment at 0.1 μM, normalized to loading control and DMSO
[9] = 16 h, read-out: %remaining protein cIAP2, MM.1S cells, 16 h treatment at 0.1 μM, normalized to loading control and DMSO
[10] = MM.1S cells, 16 h treatment at 0.1 μM, normalized to loading control and DMSO

Chain of CRBN (Q96SW2 whole entry): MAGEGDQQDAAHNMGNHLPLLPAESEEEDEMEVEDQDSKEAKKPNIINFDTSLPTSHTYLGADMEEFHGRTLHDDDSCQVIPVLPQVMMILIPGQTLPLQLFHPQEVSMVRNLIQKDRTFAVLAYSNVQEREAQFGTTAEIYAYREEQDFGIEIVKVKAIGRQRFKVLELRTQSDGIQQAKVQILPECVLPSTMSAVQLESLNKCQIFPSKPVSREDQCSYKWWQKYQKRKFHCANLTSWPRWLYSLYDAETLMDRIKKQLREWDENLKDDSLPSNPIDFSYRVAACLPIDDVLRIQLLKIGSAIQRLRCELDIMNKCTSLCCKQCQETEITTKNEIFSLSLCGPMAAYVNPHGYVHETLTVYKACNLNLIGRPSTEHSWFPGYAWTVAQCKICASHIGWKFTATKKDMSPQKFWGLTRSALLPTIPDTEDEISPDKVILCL
T1 sequence (P02768 25-609): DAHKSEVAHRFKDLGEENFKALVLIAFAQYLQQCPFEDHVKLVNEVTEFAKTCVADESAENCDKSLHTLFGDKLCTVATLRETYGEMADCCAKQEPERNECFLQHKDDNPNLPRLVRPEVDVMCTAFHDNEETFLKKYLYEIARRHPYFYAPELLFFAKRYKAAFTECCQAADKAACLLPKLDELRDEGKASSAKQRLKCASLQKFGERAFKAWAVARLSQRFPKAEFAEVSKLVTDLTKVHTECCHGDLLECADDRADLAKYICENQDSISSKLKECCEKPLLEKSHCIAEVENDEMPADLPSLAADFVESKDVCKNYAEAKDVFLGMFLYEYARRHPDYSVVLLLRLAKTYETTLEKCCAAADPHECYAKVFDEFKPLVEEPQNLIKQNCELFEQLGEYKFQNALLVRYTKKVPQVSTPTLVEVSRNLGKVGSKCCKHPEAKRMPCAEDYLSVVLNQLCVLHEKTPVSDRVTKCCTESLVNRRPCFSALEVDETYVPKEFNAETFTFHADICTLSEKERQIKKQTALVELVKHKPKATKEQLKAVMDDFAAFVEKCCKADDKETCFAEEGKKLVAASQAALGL
Chain of cIAP2 (Q13489 whole entry): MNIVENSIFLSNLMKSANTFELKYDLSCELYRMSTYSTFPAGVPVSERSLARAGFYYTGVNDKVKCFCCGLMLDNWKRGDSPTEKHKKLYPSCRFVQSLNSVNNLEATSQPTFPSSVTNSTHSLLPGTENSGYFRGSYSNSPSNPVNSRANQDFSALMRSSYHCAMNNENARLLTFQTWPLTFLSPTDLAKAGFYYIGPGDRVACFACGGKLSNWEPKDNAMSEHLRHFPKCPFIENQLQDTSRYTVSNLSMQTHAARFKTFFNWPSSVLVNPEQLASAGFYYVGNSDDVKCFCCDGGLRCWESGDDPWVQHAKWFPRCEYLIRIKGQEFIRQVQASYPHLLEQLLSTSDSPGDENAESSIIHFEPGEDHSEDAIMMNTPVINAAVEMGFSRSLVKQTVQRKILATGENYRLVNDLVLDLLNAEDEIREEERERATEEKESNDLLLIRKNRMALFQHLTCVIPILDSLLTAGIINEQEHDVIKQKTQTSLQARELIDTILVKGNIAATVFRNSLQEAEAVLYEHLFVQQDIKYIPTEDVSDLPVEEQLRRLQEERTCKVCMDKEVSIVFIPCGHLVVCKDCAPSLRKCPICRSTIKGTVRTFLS
Chain of cIAP1 (Q13490 whole entry): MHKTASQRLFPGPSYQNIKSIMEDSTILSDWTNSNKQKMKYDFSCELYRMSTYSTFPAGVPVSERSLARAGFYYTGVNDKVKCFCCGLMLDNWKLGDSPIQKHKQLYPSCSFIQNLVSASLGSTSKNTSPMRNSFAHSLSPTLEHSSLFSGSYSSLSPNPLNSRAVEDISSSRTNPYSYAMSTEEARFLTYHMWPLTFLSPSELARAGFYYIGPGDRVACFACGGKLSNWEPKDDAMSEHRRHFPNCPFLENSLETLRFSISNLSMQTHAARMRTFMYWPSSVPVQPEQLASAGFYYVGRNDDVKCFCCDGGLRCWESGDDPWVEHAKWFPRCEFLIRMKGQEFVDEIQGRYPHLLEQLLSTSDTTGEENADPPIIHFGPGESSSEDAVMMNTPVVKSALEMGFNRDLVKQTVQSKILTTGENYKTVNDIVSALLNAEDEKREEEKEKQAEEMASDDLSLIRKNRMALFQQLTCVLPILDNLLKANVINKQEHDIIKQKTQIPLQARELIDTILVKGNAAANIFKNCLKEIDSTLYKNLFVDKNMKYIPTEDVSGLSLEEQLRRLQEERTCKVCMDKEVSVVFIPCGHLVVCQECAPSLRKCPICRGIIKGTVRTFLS
Chain of XIAP (P98170 whole entry): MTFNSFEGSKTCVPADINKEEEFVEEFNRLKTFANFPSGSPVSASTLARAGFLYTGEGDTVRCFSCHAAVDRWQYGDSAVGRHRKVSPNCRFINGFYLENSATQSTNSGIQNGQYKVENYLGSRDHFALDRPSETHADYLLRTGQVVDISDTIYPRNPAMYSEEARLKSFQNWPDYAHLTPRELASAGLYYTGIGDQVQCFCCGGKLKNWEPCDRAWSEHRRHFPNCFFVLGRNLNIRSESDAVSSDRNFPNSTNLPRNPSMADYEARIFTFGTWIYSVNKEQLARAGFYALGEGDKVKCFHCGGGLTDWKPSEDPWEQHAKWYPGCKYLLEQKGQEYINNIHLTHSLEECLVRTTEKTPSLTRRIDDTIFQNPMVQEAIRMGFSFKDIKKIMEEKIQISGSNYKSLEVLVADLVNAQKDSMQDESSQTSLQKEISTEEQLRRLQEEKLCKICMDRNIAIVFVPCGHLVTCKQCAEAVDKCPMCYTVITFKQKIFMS
Chain of VHL30 (P40337 whole entry): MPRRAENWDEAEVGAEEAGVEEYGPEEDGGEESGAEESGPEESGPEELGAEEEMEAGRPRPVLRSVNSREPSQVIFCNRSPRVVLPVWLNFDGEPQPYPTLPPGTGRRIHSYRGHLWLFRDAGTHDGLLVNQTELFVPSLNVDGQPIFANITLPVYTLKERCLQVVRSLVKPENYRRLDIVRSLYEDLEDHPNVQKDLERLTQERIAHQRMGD

fraction unbound at 0.5 mg/mL [1] | chromatographic logD [2] | remaining activity at 0.1 µM (XIAP; [7]) | remaining activity at 0.1 µM (CRBN) | remaining activity at 0.1 µM (cIAP1; [8]) | remaining activity at 0.1 µM (cIAP2; [9]) | Molecule | %remaining protein IKZF3 (IKZF3) | IAP degradation profile (in words) [3] | further results
0.04 | 4.6 | 8% | 95% | 6% | 34% | CN[C@@H](C)C(=O)N[C@H](C(=O)N1C[C@@H](Oc2cccc(OCCCCCNc3cccc4c3C(=O)N(C3CCC(=O)NC3=O)C4=O)c2)C[C@H]1C(=O)N[C@@H]1CCCc2ccccc21)C1CCCCC1 (stereo partly drawn) [PROTAC 20, (2S,4S)-1-((S)-2-Cyclohexyl-2-((S)-2-(methylamino)propanamido)acetyl)-4-(3-((5-((2-(2,6-dioxopiperidin-3-yl)-1,3-dioxoisoindolin-4-yl)amino)pentyl)oxy)phenoxy)-N-((R)-1,2,3,4-tetrahydronaphthalen-1-yl)pyrrolidine-2-carboxamide] | 89% |  | 
0.05 | 3.9 | 3% | 85% | 4% | 11% | CN[C@@H](C)C(=O)N[C@H](C(=O)N1C[C@@H](Oc2cccc(OCCOCCOCCNc3cccc4c3C(=O)N(C3CCC(=O)NC3=O)C4=O)c2)C[C@H]1C(=O)N[C@@H]1CCCc2ccccc21)C1CCCCC1 (stereo partly drawn) [PROTAC 23, (2S,4S)-1-((S)-2-Cyclohexyl-2-((S)-2-(methylamino)propanamido)acetyl)-4-(3-(2-(2-(2-((2-(2,6-dioxopiperidin-3-yl)-1,3-dioxoisoindolin-4-yl)amino)ethoxy)ethoxy)ethoxy)phenoxy)-N-((R)-1,2,3,4-tetrahydronaphthalen-1-yl)pyrrolidine-2-carboxamide] | 95% |  | 
0.06 | 3.9 | 2% | 86% | 4% | 8% | CN[C@@H](C)C(=O)N[C@H](C(=O)N1C[C@@H](Oc2cccc(OCCOCCOCCOCCNc3cccc4c3C(=O)N(C3CCC(=O)NC3=O)C4=O)c2)C[C@H]1C(=O)N[C@@H]1CCCc2ccccc21)C1CCCCC1 (stereo partly drawn) [PROTAC 24, (2S,4S)-1-((S)-2-Cyclohexyl-2-((S)-2-(methylamino)propanamido)acetyl)-4-(3-(2-(2-(2-(2-((2-(2,6-dioxopiperidin-3-yl)-1,3-dioxoisoindolin-4-yl)amino)ethoxy)ethoxy)ethoxy)ethoxy)phenoxy)-N-((R)-1,2,3,4-tetrahydronaphthalen-1-yl)pyrrolidine-2-carboxamide] | 95% |  | 
0.05 | 3.4 |  |  |  |  | CC[C@H](NC(=O)[C@H](C)NC)C(=O)N1C[C@@H](O)C[C@H]1Cc1c(-c2[nH]c3cc(F)ccc3c2C[C@@H]2C[C@H](O)CN2C(=O)[C@H](CC)NC(=O)[C@H](C)NC)[nH]c2cc(F)ccc12 [birinapant, reference compound] |  | potent cIAP autodegradation | cIAP2 degradation (in words) (cIAP2; MM.1S cells, 16 h, western blot, 0.1 or 1 μM): substantial degradation
 |  |  |  |  |  | (2S,4S)-1-((S)-2-Cyclohexyl-2-((S)-2-(methylamino)propanamido)acetyl)-4-(3-((8-((2-(2,6-dioxopiperidin-3-yl)-1,3-dioxoisoindolin-4-yl)amino)octyl)oxy)phenoxy)-N-((R)-1,2,3,4-tetrahydronaphthalen-1-yl)pyrrolidine-2-carboxamide [PROTAC 21] | 95% |  | logD (experimental partition coefficient, elog D7.4) ([2]; pH 7.4, fast-gradient HPLC method): 5.7; %remaining protein XIAP (XIAP; [10]): 4%; %remaining protein CRBN (CRBN; [10]): 90%; %remaining protein cIAP1 (cIAP1; [10]): 5%; %remaining protein cIAP2 (cIAP2; [10]): 14%

Molecule | fraction unbound at 0.5 mg/mL [1] | chromatographic logD [2] | remaining activity at 0.1 µM (XIAP; [7]) | remaining activity at 0.1 µM (CRBN) | remaining activity at 0.1 µM (cIAP1; [8]) | remaining activity at 0.1 µM (cIAP2; [9]) | %remaining protein IKZF3 (IKZF3) | IAP degradation profile (in words) [3] | further results
CN[C@@H](C)C(=O)N[C@H](C(=O)N1C[C@@H](Oc2cccc(OCCCCCCOCCCCCCOCCOc3cc(-c4scnc4C)ccc3CNC(=O)[C@@H]3C[C@@H](O)CN3C(=O)[C@H](C(C)C)N3Cc4ccccc4C3=O)c2)C[C@H]1C(=O)N[C@@H]1CCCc2ccccc21)C1CCCCC1 [PROTAC 17, (2S,4S)-1-((S)-2-Cyclohexyl-2-((S)-2-(methylamino)propanamido)acetyl)-4-(3-((6-((6-(2-(2-(((2S,4R)-4-hydroxy-1-((S)-3-methyl-2-(1-oxoisoindolin-2-yl)butanoyl)pyrrolidine-2-carboxamido)methyl)-5-(4-methylthiazol-5-yl)phenoxy)ethoxy)hexyl)oxy)hexyl)oxy)phenoxy)-N-((R)-1,2,3,4-tetrahydronaphthalen-1-yl)pyrrolidine-2-carboxamide] | 0.03 | 5.2 |  |  |  |  |  |  | remaining activity at 0.1 µM (XIAP; [4]): 1%; remaining activity at 0.1 µM (cIAP1; [5]): 3%; remaining activity at 0.1 µM (cIAP2; [6]): 31%; remaining activity at 0.1 µM (VHL30): 81%
CN[C@@H](C)C(=O)N[C@H](C(=O)N1C[C@@H](Oc2cccc(OCCCCOCCCCNc3cccc4c3C(=O)N(C3CCC(=O)NC3=O)C4=O)c2)C[C@H]1C(=O)N[C@@H]1CCCc2ccccc21)C1CCCCC1 (stereo partly drawn) [PROTAC 22, (2S,4S)-1-((S)-2-Cyclohexyl-2-((S)-2-(methylamino)propanamido)acetyl)-4-(3-(4-(4-((2-(2,6-dioxopiperidin-3-yl)-1,3-dioxoisoindolin-4-yl)amino)butoxy)butoxy)phenoxy)-N-((R)-1,2,3,4-tetrahydronaphthalen-1-yl)pyrrolidine-2-carboxamide] | 0.04 | 4.9 | 2% | 77% | 3% | 7% | 61% | pronounced pan-IAP depletion | IKZF3 degradation (in words) (IKZF3): substantial IKZF3 degradation at 1 μM; IKZF3 degraded (IKZF3; 16 h treatment, 0.1 μM): approximately 40%
CN[C@@H](C)C(=O)N[C@H](C(=O)N1C[C@@H](Oc2cccc(OCCCCCOCCCCCOCCCCCCNc3cccc4c3C(=O)N(C3CCC(=O)NC3=O)C4=O)c2)C[C@H]1C(=O)N[C@@H]1CCCc2ccccc21)C1CCCCC1 (stereo partly drawn) [PROTAC 26, (2S,4S)-1-((S)-2-Cyclohexyl-2-((S)-2-(methylamino)propanamido)acetyl)-4-(3-((5-((5-((6-((2-(2,6-dioxopiperidin-3-yl)-1,3-dioxoisoindolin-4-yl)amino)hexyl)oxy)pentyl)oxy)pentyl)oxy)phenoxy)-N-((R)-1,2,3,4-tetrahydronaphthalen-1-yl)pyrrolidine-2-carboxamide] |  | 6.5 |  | 95% |  |  | 90% | pronounced pan-IAP depletion | remaining activity at 0.1 µM (XIAP; [4]): 2%; remaining activity at 0.1 µM (cIAP1; [5]): 10%; remaining activity at 0.1 µM (cIAP2; [6]): 16%; IKZF3 degradation (in words) (IKZF3): substantial IKZF3 degradation at 1 μM
